In PubChem BioAssay (NCI):
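Results reflect a 48-hour exposure of cells in 96-well plates to compound at five concentrations. GI50 marks 50% less growth. The concentration for full growth arrest is given as TGI.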

Assays:
Test in all cases: DTP human tumour cell line panel, 48 h
COLO 205 colon = test system: COLO 205 colon
OVCAR-4 ovarian = test system: OVCAR-4 ovarian
U251 CNS = test system: U251 CNS
MOLT-4 leukemia = test system: MOLT-4 leukemia
SW-620 colon = test system: SW-620 colon
MALME-3M melanoma = test system: MALME-3M melanoma
LOX IMVI melanoma = test system: LOX IMVI melanoma
CCRF-CEM leukemia = test system: CCRF-CEM leukemia
SF-295 CNS = test system: SF-295 CNS
MDA-MB-231 breast = test system: MDA-MB-231 breast

Structure (SMILES) | GI50 (COLO 205 colon) [µM] | TGI (COLO 205 colon) [µM] | GI50 (OVCAR-4 ovarian) [µM] | TGI (OVCAR-4 ovarian) [µM] | GI50 (U251 CNS) [µM] | TGI (U251 CNS) [µM] | GI50 (MOLT-4 leukemia) [µM] | GI50 (SW-620 colon) [µM] | TGI (SW-620 colon) [µM] | GI50 (MALME-3M melanoma) [µM] | TGI (MALME-3M melanoma) [µM] | GI50 (LOX IMVI melanoma) [µM] | TGI (LOX IMVI melanoma) [µM] | GI50 (CCRF-CEM leukemia) [µM] | TGI (CCRF-CEM leukemia) [µM] | GI50 (SF-295 CNS) [µM] | TGI (SF-295 CNS) [µM] | GI50 (MDA-MB-231 breast) [µM] | TGI (MDA-MB-231 breast) [µM] | TGI (MOLT-4 leukemia) [µM]
COc1cc(C2=NOC(c3cc(OC)c(OC)c(OC)c3)C2)ccc1OCCCCOc1cc2c(cc1OC)C(=O)N1CCC[C@H]1C=N2 (stereo partly drawn) | 0.245 | 0.586 | 0.439 | 8.64 | 0.315 | 1.1 | 0.299 | 0.246 | 0.855 | 0.197 | 0.364 | 0.215 | 0.495 | 0.164 | 0.466 | 0.327 | 1.28 | 0.235 | 0.75 | 
O=C(N/N=C/c1ccccc1O)c1ccccc1Nc1ccnc(C(F)(F)F)c1 | 0.3 | 41.3 | 0.271 | > 100 | 0.442 | > 100 | 0.28 | 2.04 | > 100 | 0.858 | 19.2 | 0.279 | > 54.7 | 0.123 |  | 0.573 | 27.6 | 0.796 | > 95.4 | > 32.3
CC[C@@H]1CN(C)[C@H]2Cc3c([nH]c4ccccc34)C(=O)C[C@H]1C2C(=O)OC (stereo partly drawn) |  | > 100 |  | > 31.6 |  | > 100 |  |  | > 100 |  | > 100 |  | > 100 |  | > 100 |  | > 100 |  | > 100 | > 100
CC(C)(C)OC(=O)N1CCc2c(sc3ncnc(N/N=C/c4cccc5ccccc45)c23)C1 | 2.79 | 40.8 | 3.79 | 80.6 | 4.25 | > 100 | 3.25 | 3.87 | > 100 | 3.97 | 36.3 | 3.84 | 25.5 | 3.6 | > 100 | 3.72 | 66.8 | 5.93 | > 100 | 16.9
Oc1ccc(CN2CCC(N3CCCCC3)CC2)c2cccnc12 | 48.4 | > 100 | 24.2 | > 100 | 5.57 | > 100 | 19.9 | 17 | > 100 | 24.4 | > 100 | 5.32 | > 100 | 36.1 | > 100 | 68.3 | > 100 | 22.4 | > 100 | > 100
CS(=O)(=O)c1ccc([C@H]2O[C@@H](CO)C[C@]2(O)c2ccc(S(C)(=O)=O)cc2)cc1 | > 100 | > 100 | > 100 | > 100 | > 100 | > 100 | > 100 | > 100 | > 100 | > 100 | > 100 | > 100 | > 100 | > 100 | > 100 | > 100 | > 100 | > 100 | > 100 | > 100
